Experimental data published in patent US7321059B2, “Compounds for use as surfactants” (Glaxo Group Limited, priority 2001, dated 2008).

Experiments:
[1] = Content uniformity by dose through use testing of salmeterol xinafoate HFA 134a MDI formulations; type: physicochemical; conditions: salmeterol xinafoate 25 mcg per actuation in HFA 134a
Method: Salmeterol xinafoate formulations in HFA 134a, of strength 25 mcg per actuation, and 10% w/w (relative to drug) of the relevant surfactant compound of formula (I) (i.e. Example 3 or Example 4) prepared in aluminum cans with a crimped cap containing a metering valve using salmeterol xinafoate (8.7 mg), HFA 134a (18 g) and the relevant compound (0.87 mg). The control was prepared without the addition of a surfactant. The content uniformity of the formulations was assessed by dose through use testing. Testing was performed on a set of 10 cans/inhalers for each of the formulations, at “beginning of use” (BoU) and “end of use” (EoU). After each inhaler had been primed (4 shots fired to waste), actuations 1 and 2 (BoU) were collected. The next 116 actuations of each inhaler were then fired to waste using an automated method and actuations 119 and 120 (EoU) collected.
In the control there was a rise from beginning to end of use of 5.6 mcg. However, in the presence of the said surfactant compound this rise was reduced to 1.4 mcg for formulations incorporating a compound of Example 3 and 2.8 mcg for formulations incorporating a compound of Example 4. There was also a reduction in the percentage RSD at BoU for the formulations incorporating said surfactant compounds, thereby showing improved can to can reproducibility. Furthermore, there was also a reduction in the percentage RSD at EoU for the formulations incorporating Example 4. The presence of the said surfactants therefore improves the content uniformity of the inhaler.

[2] = Deposition of drug on valve and can of salmeterol xinafoate HFA 134a MDI formulations (HPLC); type: physicochemical; conditions: salmeterol xinafoate 1.50 mg in HFA 134a 3 g, surfactant 0.15 mg (10% w/w relative to drug)
Method: Salmeterol xinafoate formulations in HFA 134a, strength 25 mcg per dose for each of 60 actuations, and 10% w/w (relative to drug) of the relevant surfactant compound of formula (I) (i.e. Example 3 or Example 4) were prepared in aluminum cans with a crimped cap containing a metering valve using salmeterol xinafoate (1.50 mg), HFA 134a (3 g) and the relevant compound (0.15 mg). The control was prepared without the addition of a surfactant.
Cans containing the said formulations for analysis were cooled to […] to liquefy the propellant therein. These were then opened and the contents collected in a vessel. The valve and the empty can were quantitatively washed. The washings for each component were kept separate. The amount of drug in: the contents removed from the can, the valve washings and the can washing was quantified by HPLC analysis.
Therefore, the presence of said surfactants in formulations seems to reduce the deposition of the drug on the can and valve.

With `COCCOCCOCCOCCCOCC(OCCCOCCOCCOCCOC)C(=O)O` (centres unmarked) [Example 3, 17-(4,7,10,13-Tetraoxatetradec-1-yloxy)-2,5,8,11,15-pentaoxaoctadecan-18-oic acid] the “BoU Dose % RSD” value ([1]; can to can reproducibility at beginning of use, 10% w/w surfactant, 10 cans) was 0.7%, the “EoU Dose % RSD” value ([1]; can to can reproducibility at end of use, 10% w/w surfactant, 10 cans) was 13.9% and the “EoU − BoU (rise in dose from beginning to end of use)” value ([1]; 10% w/w surfactant relative to drug) was 1.4 µg. For the same molecule, the “BoU Dose” value ([1]; 10% w/w surfactant relative to drug, beginning of use, actuations 1 and 2, 10 cans) was 15.8 µg, the “EoU Dose” value ([1]; 10% w/w surfactant relative to drug, end of use, actuations 119 and 120, 10 cans) was 17.2 µg and the “Can Deposition” value ([2]; aluminum can) was 0.25 mg. The “Valve Deposition” value ([2]; aluminum can) was 0.33 mg and the “Drug Content In Can” value ([2]; contents removed from can) was 0.56 mg.
